IC50 data for 78 compounds are collected here from US20250090540A1, “PI3K-ALPHA INHIBITORS AND METHODS OF USE THEREOF” (Relay Therapeutics, Inc., priority 2021, published 2025).

In the experiment the target is H1047R PIK3CA enzyme (Homo sapiens, UniProt P42336, H1047R). The experiment is described as follows: ADP-Glo Biochemical PIK3CA Kinase Assay. For orientation: ADP-Glo first removes unused ATP, then detects ADP through luciferase.
Sequence of H1047R PIK3CA enzyme (P42336 whole entry H1047R): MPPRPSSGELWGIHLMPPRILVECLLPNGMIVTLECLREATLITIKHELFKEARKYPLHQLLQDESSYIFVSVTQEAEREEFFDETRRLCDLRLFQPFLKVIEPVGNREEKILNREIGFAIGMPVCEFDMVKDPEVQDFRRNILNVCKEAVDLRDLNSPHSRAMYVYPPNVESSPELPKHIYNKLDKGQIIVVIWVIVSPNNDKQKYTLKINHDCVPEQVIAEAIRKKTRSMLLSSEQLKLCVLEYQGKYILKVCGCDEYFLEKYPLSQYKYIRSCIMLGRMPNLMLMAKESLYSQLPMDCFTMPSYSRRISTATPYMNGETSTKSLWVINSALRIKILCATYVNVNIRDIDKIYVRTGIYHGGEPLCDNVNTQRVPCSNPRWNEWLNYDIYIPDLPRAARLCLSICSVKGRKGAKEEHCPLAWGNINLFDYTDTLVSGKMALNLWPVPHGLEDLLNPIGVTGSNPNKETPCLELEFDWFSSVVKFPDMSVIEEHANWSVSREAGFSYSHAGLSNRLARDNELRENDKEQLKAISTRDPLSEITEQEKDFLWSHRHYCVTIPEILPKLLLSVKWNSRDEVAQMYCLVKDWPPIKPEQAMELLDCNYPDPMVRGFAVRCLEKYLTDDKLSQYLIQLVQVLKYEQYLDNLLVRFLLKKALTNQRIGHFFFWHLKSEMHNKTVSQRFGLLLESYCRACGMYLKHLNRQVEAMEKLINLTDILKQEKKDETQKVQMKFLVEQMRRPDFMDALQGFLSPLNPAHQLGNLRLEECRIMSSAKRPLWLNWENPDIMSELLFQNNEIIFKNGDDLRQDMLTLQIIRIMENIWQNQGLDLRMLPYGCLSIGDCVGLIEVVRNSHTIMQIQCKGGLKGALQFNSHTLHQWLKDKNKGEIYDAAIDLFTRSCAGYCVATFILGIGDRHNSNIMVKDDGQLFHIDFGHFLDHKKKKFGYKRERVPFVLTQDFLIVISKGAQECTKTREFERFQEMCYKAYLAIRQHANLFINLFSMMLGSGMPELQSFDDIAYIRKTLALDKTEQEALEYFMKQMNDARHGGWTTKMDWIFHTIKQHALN
Sequence of H1047R PIK3CA enzyme (P27986 whole entry partner): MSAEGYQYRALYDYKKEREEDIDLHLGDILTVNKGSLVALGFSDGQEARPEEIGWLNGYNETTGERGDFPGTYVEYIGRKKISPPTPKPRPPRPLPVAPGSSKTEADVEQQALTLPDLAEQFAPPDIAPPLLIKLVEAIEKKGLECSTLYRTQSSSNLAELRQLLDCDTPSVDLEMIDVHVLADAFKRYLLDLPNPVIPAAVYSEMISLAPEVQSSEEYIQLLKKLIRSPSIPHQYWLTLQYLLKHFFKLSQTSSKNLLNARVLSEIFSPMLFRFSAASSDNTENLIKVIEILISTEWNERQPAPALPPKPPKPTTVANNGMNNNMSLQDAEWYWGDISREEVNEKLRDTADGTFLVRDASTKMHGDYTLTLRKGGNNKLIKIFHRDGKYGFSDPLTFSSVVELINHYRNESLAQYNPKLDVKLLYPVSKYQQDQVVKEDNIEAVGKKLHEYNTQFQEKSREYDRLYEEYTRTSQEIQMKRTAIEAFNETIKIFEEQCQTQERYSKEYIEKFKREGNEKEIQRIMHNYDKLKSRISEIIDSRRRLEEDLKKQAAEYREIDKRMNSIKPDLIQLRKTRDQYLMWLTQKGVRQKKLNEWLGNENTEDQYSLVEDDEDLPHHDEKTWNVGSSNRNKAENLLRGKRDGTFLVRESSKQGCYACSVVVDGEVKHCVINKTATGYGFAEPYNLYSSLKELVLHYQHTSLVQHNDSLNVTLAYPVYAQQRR
As to `CNC(=O)c1cnc(Nc2ccccc2C)c(NC(=O)c2ccc3c(n2)CCCN3)c1` [I-205], the half-inhibitory concentration (IC50) (commonly the concentration at which inhibition is half-maximal) was in the range of 10 to 100 µM.
On to `COC(=O)c1cnc(Nc2ccc(C)cc2)c(NC(=O)c2csc3ccccc23)c1` [I-206], for which the IC50 was 10 to 100 µM.
To `CNC(=O)c1cnc(Nc2ccccc2C)c(NC(=O)c2cn(C)c3ccccc23)c1` [I-207] belongs 1 to 10 µM; to `CNC(=O)c1cnc(Nc2ccccc2C)c(NC(=O)c2csc(Cl)c2Cl)c1` [I-213], 10 to 100 µM.
Compound `CNC(=O)c1cnc(Nc2ccccc2CN)c(NC(=O)c2csc3ccccc23)c1` [I-214] registered a half-inhibitory concentration (IC50) of 10 to 100 µM.
In the case of `CC1CCc2ccccc2N1c1ncc(C(=O)NC2CS(=O)(=O)C2)cc1NC(=O)c1csc2ccccc12` (stereo not drawn) [I-216] it was 1 to 10 µM.
To `CC1CCc2ccccc2N1c1ncc(C(=O)NCc2nccs2)cc1NC(=O)c1csc2ccccc12` (stereo not drawn) [I-217] belongs 1 to 10 µM; to `CNC(=O)c1cnc(N2c3ccccc3CCC2C)c(NC(=O)c2csc3ccccc23)c1` (stereo not drawn) [I-218], 10 to 100 µM.
As to `Cc1ccccc1Nc1cnccc1NC(=O)c1cc(F)cc(C(F)(F)F)c1` [I-220], the IC50 was 1 to 10 µM.
To `Cc1ccccc1Nc1cnccc1NC(=O)c1csc2ccccc12` [I-221] belongs 1 to 10 µM; to `Cc1ccc(Nc2ncc(C(=O)NC3CS(=O)(=O)C3)cc2NC(=O)c2csc3ccccc23)cc1` [I-222], 1 to 10 µM.
In the case of `Cc1ccc(Nc2ncc(C(=O)NCc3ccn(C)n3)cc2NC(=O)c2csc3ccccc23)cc1` [I-223] it was 1 to 10 µM; in that of `Cc1ccc(Nc2ncc(C(=O)NCc3cnn(C)c3)cc2NC(=O)c2csc3ccccc23)cc1` [I-224], 10 to 100 µM; in that of `Cc1ccc(Nc2ncc(C(=O)NCc3nccs3)cc2NC(=O)c2csc3ccccc23)cc1` [I-225], 1 to 10 µM.
To `CNC(=O)c1cnc(Nc2ccc(C)cc2)c(NC(=O)c2csc3ccccc23)c1` [I-226] belongs 10 to 100 µM; to `Cc1ccccc1Nc1ncc(C(=O)Nc2cc[nH]n2)cc1NC(=O)c1cc(F)cc(C(F)(F)F)c1` [I-230], 1 to 10 µM.
As for `Cc1ccccc1Nc1ncc(C(=O)Nc2ccccc2)cc1NC(=O)c1cc(F)cc(C(F)(F)F)c1` [I-231], the concentration for half-maximal inhibition (IC50) lay in the range of 1 to 10 µM.
In the case of `CNC(=O)c1cnc(Nc2ccccc2C)c(NC(=O)c2nccc3ccccc23)c1` [I-233] it was 10 to 100 µM; in that of `Cc1ccccc1Nc1ncc(C(=O)Nc2ccn(C)n2)cc1NC(=O)c1cc(F)cc(C(F)(F)F)c1` [I-235], 0.5 to 1 µM.
To `CNC(=O)c1cnc(Nc2ccccc2C)c(NC(=O)c2ccc(F)c3ccccc23)c1` [I-236] belongs 10 to 100 µM; to `CNC(=O)c1cnc(Nc2ccccc2C)c(NC(=O)c2cccc3cnccc23)c1` [I-237], 10 to 100 µM.
Compound `CNC(=O)c1cnc(Nc2ccccc2C)c(NC(=O)c2cccc3ccncc23)c1` [I-238] displayed a concentration for half-maximal inhibition (IC50) of 10 to 100 µM.
In the case of `CNC(=O)c1cnc(Nc2ccccc2C)c(NC(=O)c2csc(C(F)(F)F)n2)c1` [I-241] it was 10 to 100 µM.
Compound `CNC(=O)c1cnc(Nc2ccccc2C)c(NC(=O)c2csc(C)n2)c1` [I-242] came in with a half-inhibitory concentration (IC50) of 10 to 100 µM.
As to `CNC(=O)c1cnc(Nc2ccccc2C)c(NC(=O)c2csc(N)n2)c1` [I-243], the concentration for half-maximal inhibition (IC50) was 10 to 100 µM.
In turn, `CNC(=O)c1cnc(N2CCNc3ccccc32)c(NC(=O)c2csc3ccccc23)c1` [I-244] registered an IC50 of 10 to 100 µM.
In the case of `CNC(=O)c1cnc(Nc2ccccc2C)c(NC(=O)Cc2cccnc2)c1` [I-250] it was 10 to 100 µM.
In the case of `CNC(=O)c1cnc(Nc2ccccc2C)c(NC(=O)C2CCOc3ccccc32)c1` (stereo not drawn) [I-259] it was 10 to 100 µM.
To `CNC(=O)c1cnc(Nc2ccccc2C)c(NC(=O)C2CCSc3ccccc32)c1` (stereo not drawn) [I-260] belongs 10 to 100 µM.
Regarding `Cc1ccc(Nc2ncc(C(=O)NCc3ccnn3C)cc2NC(=O)c2csc3ccccc23)cc1` [I-261], the IC50 was 1 to 10 µM.
In the case of `Cc1ccccc1Nc1ncc(C(=O)Nc2ccncn2)cc1NC(=O)c1cc(F)cc(C(F)(F)F)c1` [I-262] it was 0.5 to 1 µM; in that of `Cc1ccc(NC(=O)c2cnc(Nc3ccccc3C)c(NC(=O)c3cc(F)cc(C(F)(F)F)c3)c2)nc1` [I-263], 1 to 10 µM.
Compound `Cc1cnnc(NC(=O)c2cnc(Nc3ccccc3C)c(NC(=O)c3cc(F)cc(C(F)(F)F)c3)c2)c1` [I-264] yielded an IC50 of 1 to 10 µM.
For `Cc1ccccc1Nc1ncc(C(=O)Nc2cncnc2)cc1NC(=O)c1cc(F)cc(C(F)(F)F)c1` [I-265], the IC50 lay within 0.5 to 1 µM.
To `Cc1ccccc1Nc1ncc(N2CCNCC2)cc1NC(=O)c1cc(F)cc(C(F)(F)F)c1` [I-268] belongs 0.5 to 1 µM; to `CNC(=O)c1cnc(Nc2ncccc2C)c(NC(=O)c2cc(F)cc(C(F)(F)F)c2)c1` [I-269], 1 to 10 µM; to `Cc1ccccc1Nc1ncc(N2CCN(C(=O)OC(C)(C)C)CC2)cc1NC(=O)c1cc(F)cc(C(F)(F)F)c1` [I-270], 1 to 10 µM.
In the case of `COCCn1cc(NC(=O)c2csc3ccccc23)c(N2CCOc3ccccc32)cc1=O` [I-271] it was 1 to 10 µM.
As for `Cn1cc(NC(=O)c2csc3ccccc23)c(N2CCOc3ccccc32)cc1=O` [I-272], the 50% inhibitory concentration (IC50) lay in the range of 1 to 10 µM.
To `Cn1cc(NC(=O)c2cc(F)cc(C(F)(F)F)c2)c(N2CCOc3ccccc32)cc1=O` [I-273] belongs 1 to 10 µM.
To `O=C(NC1CS(=O)(=O)C1)c1cnc(N2CCCOc3ccccc32)c(NC(=O)c2csc3ccccc23)c1` [I-277] belongs 10 to 100 µM.
In the case of `Cc1ccccc1Nc1cc(=O)n(C)cc1NC(=O)c1csc2ccccc12` [I-280] it was 1 to 10 µM.
In turn, `CNC(=O)c1cnc(N2CCNCc3ccccc32)c(NC(=O)c2cc(F)cc(C(F)(F)F)c2)c1` [I-281] yielded an IC50 of 10 to 100 µM.
`CNC(=O)c1cnc(N2CCC(C)c3ccccc32)c(NC(=O)c2cc(F)cc(C(F)(F)F)c2)c1` (stereo not drawn) [I-282] had a 50% inhibitory concentration (IC50) of 1 to 10 µM.
To `CNC(=O)c1cnc(Nc2ccccc2C)c(NC(=O)c2csc3ncccc23)c1` [I-283] belongs 10 to 100 µM; to `CCn1cccc(C(=O)Nc2cc(C(=O)NC)cnc2Nc2ccccc2C)c1=O` [I-284], 10 to 100 µM.
To `CNC(=O)c1cnc(Nc2ccccc2C)c(NC(=O)Cc2ccccc2S(C)(=O)=O)c1` [I-306] belongs 10 to 100 µM; to `CNC(=O)c1cnc(Nc2ccccc2C)c(NC(=O)c2cc(F)cc(-c3ccccc3)c2)c1` [I-318], 10 to 100 µM; to `CNC(=O)c1cnc(Nc2ccccc2C)c(NC(=O)c2cc(F)cc3cccnc23)c1` [I-319], 10 to 100 µM.
To `CNC(=O)c1cnc(Nc2ccccc2C)c(NC(=O)c2cc(F)cc3ccccc23)c1` [I-320] belongs 10 to 100 µM; to `O=C(Nc1cccc(=O)n1Cc1ccccc1)c1csc2ccccc12` [I-321], 10 to 100 µM; to `CNC(=O)c1cnc(Nc2ccccc2C)c(NC(=O)c2cc(F)c3ccccc3c2)c1` [I-322], 10 to 100 µM.
Compound `CNC(=O)c1cnc(NCc2cncn2C)c(NC(=O)c2cc(F)cc(C(F)(F)F)c2)c1` [I-323] registered an IC50 of 10 to 100 µM.
In the case of `Cc1ccccc1NC(=O)c1cc(NC(=O)c2cc(F)cc(C(F)(F)F)c2)c(Nc2ccccc2C)cn1` [I-324] it was 10 to 100 µM; in that of `CNC(=O)c1cc(NC(=O)c2cc(F)cc(C(F)(F)F)c2)c(N(C)c2ccccc2C)cn1` [I-325], 1 to 10 µM.
In the case of `CNC(=O)c1cnc(Nc2ccccc2C)c(Nc2cc(F)c3cn[nH]c3c2)c1` [I-327] it was 10 to 100 µM.
In the case of `CNC(=O)c1cnc(Nc2ccccc2C)c(NC(=O)c2c(C)sc3ccccc23)c1` [I-328] it was 10 to 100 µM.
In turn, `CNC(=O)c1cnc(Nc2ccccc2C)c(NC(=O)C2(c3ccccn3)CC2)c1` [I-333] had an IC50 of 10 to 100 µM.
`CNC(=O)c1cnc(Nc2ccccc2C)c(NC(=O)C2(c3cccnc3)CC2)c1` [I-334] came in with an IC50 of 10 to 100 µM.
In the case of `O=C(Nc1cc(C(=O)NC2CC(F)(F)C2)cnc1N1C(=O)NCc2ccccc21)c1cc(F)cc(C(F)(F)F)c1` [I-338] it was 1 to 10 µM; in that of `CNC(=O)c1cnc(Nc2ccccc2C)c(NC(=O)c2csc3c2CCCC3)c1` [I-340], 1 to 10 µM; in that of `CNC(=O)c1cnc(Nc2ccccc2C)c(NC(=O)c2csc3c2CCC3)c1` [I-341], 1 to 10 µM.
`CNC(=O)c1cnc(Nc2ccccc2C)c(NC(=O)C2(c3ccccc3)CC2(F)F)c1` (stereo not drawn) [I-342] yielded a half-maximal inhibitory concentration (IC50) of 10 to 100 µM.
To `Cc1ccccc1Nc1ccncc1NC(=O)c1csc2ccccc12` [I-344] belongs 1 to 10 µM; to `CNC(=O)c1cnc(Nc2cccc(OC)n2)c(NC(=O)c2csc3ccccc23)c1` [I-346], 1 to 10 µM; to `Cc1ccccc1Nc1ncc(C(O)CO)cc1NC(=O)c1cc(F)cc(C(F)(F)F)c1` (stereo not drawn) [I-351], 1 to 10 µM.
`CNC(=O)c1cnc(Nc2ccccc2C)c(NC(=O)c2csc3cc(C)ccc23)c1` [I-354]: the IC50 was 1 to 10 µM.
In the case of `CNC(=O)c1cnc(Nc2ccccc2C)c(NC(=O)c2csc3cc(OC)ccc23)c1` [I-355] it was 10 to 100 µM.
To `Cc1ccccc1Nc1ncc(C(=O)NC2CS(=O)(=O)C2)cc1NC(=O)c1cncc2ccccc12` [I-356] belongs 10 to 100 µM; to `Cc1ccccc1Nc1ncc(C(=O)NC2CS(=O)(=O)C2)cc1NC(=O)c1cc2ccccc2o1` [I-357], 10 to 100 µM.
To `CNC(=O)c1cnc(NCCOC)c(NC(=O)c2cc(F)cc(C(F)(F)F)c2)c1` [I-358] belongs 10 to 100 µM; to `CNC(=O)c1cnc(NC2CCCCC2)c(NC(=O)c2cc(F)cc(C(F)(F)F)c2)c1` [I-359], 10 to 100 µM; to `CNC(=O)c1cnc(NC2CCCC2)c(NC(=O)c2cc(F)cc(C(F)(F)F)c2)c1` [I-360], 10 to 100 µM.
As for `Cc1ccccc1Nc1cc(=O)n(CC(=O)NCC2CC(F)(F)C2)cc1NC(=O)c1csc2ccccc12` [I-363], the IC50 lay in the range of 1 to 10 µM.
To `CNC(=O)c1cnc(Nc2ccccc2C)c(NC(=O)c2cc(F)cc(OC(F)F)c2)c1` [I-364] belongs 1 to 10 µM; to `CNC(=O)c1cnc(Nc2ccccc2C)c(NC(=O)c2cnccc2C(F)(F)F)c1` [I-365], 10 to 100 µM.
In the case of `CNC(=O)c1cnc(Nc2ccccc2C)c(NC(=O)c2ccnc(C(F)(F)F)c2)c1` [I-366] it was 10 to 100 µM; in that of `CNC(=O)c1cnc(Nc2ccccc2C)c(NC(=O)c2nc3ccccc3n(C)c2=O)c1` [I-368], 10 to 100 µM.
